The text below walks through data of ChEMBL document CHEMBL4715888, “Synthetic approaches to unsymmetrical 2,5-disubstituted 1,3,4-oxadiazoles and their MAO-B inhibitory activity. A review” (Bioorg Med Chem, 2021).

The species entered for experiment [1] is Rattus norvegicus. Description: Selectivity ratio of IC50 for Sprague-Dawley rat brain mitochondrial MAO-A to IC50 for Sprague-Dawley rat brain mitochondrial MAO-B.
Experiment [2] has as its target T1, Amine oxidase [flavin-containing] B (Rattus norvegicus, UniProt P19643).
T1 sequence (P19643 whole entry): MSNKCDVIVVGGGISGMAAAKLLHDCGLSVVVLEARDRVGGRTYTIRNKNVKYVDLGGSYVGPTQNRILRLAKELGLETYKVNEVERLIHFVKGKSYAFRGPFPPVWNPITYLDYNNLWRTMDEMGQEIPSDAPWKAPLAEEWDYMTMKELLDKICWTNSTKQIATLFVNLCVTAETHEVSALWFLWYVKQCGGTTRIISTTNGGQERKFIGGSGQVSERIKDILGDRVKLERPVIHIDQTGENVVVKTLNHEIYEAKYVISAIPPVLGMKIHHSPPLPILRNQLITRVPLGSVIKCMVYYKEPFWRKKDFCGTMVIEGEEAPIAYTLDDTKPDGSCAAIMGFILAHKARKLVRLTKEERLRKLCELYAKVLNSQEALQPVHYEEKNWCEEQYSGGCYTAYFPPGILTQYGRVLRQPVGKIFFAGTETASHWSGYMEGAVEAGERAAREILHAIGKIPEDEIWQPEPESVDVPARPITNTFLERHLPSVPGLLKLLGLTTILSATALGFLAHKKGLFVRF
Description: Inhibition of Sprague-Dawley rat brain mitochondrial MAO-B using [14C]-PEA as substrate by radioassay method.

For experiment [3], the target named is T2, Amine oxidase [flavin-containing] A (Rattus norvegicus, UniProt P21396).
T2 sequence (P21396 whole entry): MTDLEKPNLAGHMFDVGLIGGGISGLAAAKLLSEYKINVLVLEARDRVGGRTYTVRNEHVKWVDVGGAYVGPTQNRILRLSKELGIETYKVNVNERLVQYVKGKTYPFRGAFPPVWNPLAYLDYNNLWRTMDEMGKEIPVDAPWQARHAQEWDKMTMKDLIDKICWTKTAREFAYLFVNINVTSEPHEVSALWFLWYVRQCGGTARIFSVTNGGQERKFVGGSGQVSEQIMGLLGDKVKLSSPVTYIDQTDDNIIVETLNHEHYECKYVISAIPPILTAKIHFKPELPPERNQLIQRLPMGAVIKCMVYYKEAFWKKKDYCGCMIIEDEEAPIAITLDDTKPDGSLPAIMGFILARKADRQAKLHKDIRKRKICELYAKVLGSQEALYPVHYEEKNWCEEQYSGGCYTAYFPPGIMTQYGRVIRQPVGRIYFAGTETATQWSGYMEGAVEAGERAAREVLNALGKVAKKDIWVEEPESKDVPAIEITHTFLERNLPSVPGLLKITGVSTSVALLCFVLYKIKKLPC
Description: Inhibition of Sprague-Dawley rat brain mitochondrial MAO-A using [14C]-5-HT as substrate by radioassay method.

The target in experiment [4] is T1, Amine oxidase [flavin-containing] B. Description: Competitive inhibition of Sprague-Dawley rat brain mitochondrial MAO-B using PEA as substrate by Lineweaver-Burk plot analysis.
Experiment [5] has the same target. Description: Inhibition of Sprague-Dawley rat brain mitochondrial MAO-B using PEA as substrate preincubated for 60 mins. To be noted: read-out: Kieq.
For experiment [6] the target is unchanged. Nature of the experiment: Inhibition of Sprague-Dawley rat brain mitochondrial MAO-B using [14C]-PEA as substrate preincubated for 120 mins by radiochemical method.
Experiment [7] shares this target. Description: Inhibition of Sprague-Dawley rat brain mitochondrial MAO-B using [14C]-PEA as substrate preincubated for 60 mins by radiochemical method.

Molecules are shown by their SMILES.

In general, IC50 refers to the concentration needed to halve the response being measured. With `N#CCCn1nc(-c2ccc(-c3ccccc3)cc2)oc1=O`, in experiment [1], the Ratio IC50 is 139. Moreover, the results for the IC50 in experiment [2] and in experiment [3] were 56 nM and 7.8 µM, respectively.
Take `N#CCCn1nc(-c2ccc(-c3ccccc3)cc2)oc1=S`: in experiment [1], the Ratio IC50 is 304. In addition, the IC50 in experiment [2] was found to be 74 nM; in experiment [3], 22.5 µM.
Consider `N#CCCn1nc(-c2ccc(OCc3ccccc3)cc2)oc1=O`, for which the results for the Ki in experiment [4] and in experiment [5] were 220 nM and 0.7 nM, respectively. Also, the Ratio IC50 in experiment [1] is above 71400.
As for `O=c1oc(-c2ccc(OCc3ccccc3)cc2)nn1CCO`, the IC50 in experiment [6] and in experiment [7] was 4.7 nM each time. In addition, the Ratio IC50 in experiment [1] is above 30400.
For `N#CCCn1nc(-c2ccc(OCc3ccccc3)cc2)oc1=S`, in experiment [1], the Ratio IC50 is above 3200.
